Here are results for five compounds from ChEMBL document CHEMBL1130520, “Solid phase synthesis of C-terminal carbohydrate modified enkephalins” (Bioorg Med Chem Lett, 1997).

Each structure is given as a SMILES string. Starred links: 1 amine or outer side, 2 acyl side, 3 side chain; linkers in the order of their positions; H or OH if unused. Non-standard residues stand in square brackets, D forms with d. Residues, ends and D or L forms follow the SMILES beside them. *: point of attachment. X1 = NC(=O)[C@@H]1O[C@@H](N*)[C@@H](O)[C@@H](O)[C@@H]1O; X3 = O=C(O)[C@@H]1O[C@@H](N*)[C@@H](O)[C@@H](O)[C@@H]1O; X2 = O=C(O)C1OC(NC(=O)C2OC(N*)C(O)C(O)C2O)C(O)C(O)C1O; hMet = CSCCC[C@H](N)C(=O)O; CO = O=C([*:1])[*:2]

What all share (type): functional
The species entered for assay [1] is Mus musculus. Briefly: Compound was tested for relative potency with respect to the compound Enkephalinamide in MVD assay.
The species entered for assay [2] is Mus musculus. Briefly: Compound was tested in vitro for inhibiting electrically stimulated muscle contractions in mouse vas deferens (MVD). To be noted: Muscle tissue.
For assay [3], the species on record is Cavia porcellus. Briefly: Compound was tested in vitro for inhibiting electrically stimulated muscle contractions in guinea pig ileum (GPI).
The species entered for assay [4] is Cavia porcellus. Briefly: Compound was tested for relative potency with respect to the compound Enkephalinamide in GPI assay.

As for `CC(C)C[C@H](NC(=O)[C@H](Cc1ccccc1)NC(=O)CNC(=O)CNC(=O)[C@@H](N)Cc1ccc(O)cc1)C(N)=O` (single isomer, unassigned) [[LEU5]ENKEPHALIN], the Relative potency in the assay listed under Mus musculus [1] and in the assay filed under Cavia porcellus [4] was 1 each time. The IC50 (usually the concentration needed to halve the response being measured) in the assay filed under Mus musculus [2] turned out to be 280 nM; in the assay listed under Cavia porcellus [3] it was 540 nM.

Regarding `CC(C)C[C@H](NC(=O)N[C@@H]1O[C@@H](C(N)=O)[C@@H](O)[C@H](O)[C@@H]1O)C(=O)N[C@@H](Cc1ccccc1)C(=O)NCC(=O)NCC(=O)N[C@@H](Cc1ccc(O)cc1)C(=O)O` ({X1-CO}-LFGGY-OH), the Relative potency was determined as 0.51 in the assay filed under Mus musculus [1] and 0.14 in the assay listed under Cavia porcellus [4]. In addition, the values for the IC50 in the assay filed under Mus musculus [2] and in the assay filed under Cavia porcellus [3] were 110 nM and 3860 nM, respectively.

Regarding `CC(C)C[C@H](NC(=O)NC1OC(C(=O)NC2OC(C(=O)O)C(O)C(O)C2O)C(O)C(O)C1O)C(=O)N[C@@H](Cc1ccccc1)C(=O)NCC(=O)NCC(=O)N[C@@H](Cc1ccc(O)cc1)C(=O)O` (stereo not given in full) ({X2-CO}-LFGGY-OH), the Relative potency in the assay filed under Mus musculus [1] was 2.56; in the assay listed under Cavia porcellus [4], 0.52. The results for the IC50 in the assay listed under Mus musculus [2] and in the assay listed under Cavia porcellus [3] were 550 nM and 1040 nM, respectively.

As to `CC(C)C[C@H](NC(=O)N[C@@H]1O[C@@H](C(=O)O)[C@@H](O)[C@H](O)[C@@H]1O)C(=O)N[C@@H](Cc1ccccc1)C(=O)NCC(=O)NCC(=O)N[C@@H](Cc1ccc(O)cc1)C(=O)O` ({X3-CO}-LFGGY-OH), the Relative potency is 35.39 in the assay filed under Mus musculus [1] and 2.74 in the assay listed under Cavia porcellus [4]. In addition, the IC50 in the assay filed under Mus musculus [2] was 8 nM; in the assay listed under Cavia porcellus [3], 200 nM.

Regarding `CSCCC[C@H](NC(=O)N[C@@H]1O[C@@H](C(=O)O)[C@@H](O)[C@H](O)[C@@H]1O)C(=O)N[C@@H](Cc1ccccc1)C(=O)NCC(=O)NCC(=O)N[C@@H](Cc1ccc(O)cc1)C(=O)O` ({X3-CO}-[hMet]FGGY-OH), the figures for the Relative potency in the assay listed under Mus musculus [1] and in the assay filed under Cavia porcellus [4] were 3.8 and 4.54, respectively. Also, the results for the concentration for half-maximal inhibition (IC50) in the assay listed under Mus musculus [2] and in the assay filed under Cavia porcellus [3] were 70 nM and 110 nM, respectively.
